These results are taken from patent US11312727B1, “Macrocyclic flu endonuclease inhibitors” (Janssen BioPharma, Inc., priority 2018, dated 2022).

One data set can be described thus: in vitro. As to conditions: human, CC50, uninfected A549 cells, CellTiter-Glo. A general note: In ATP-based viability assays light output follows the ATP content of the culture.
Data set [1] relates to Influenza strain A549 A/WSN/33 (H1N1). As to the kind of experiment: microbe, parasite or virus in culture. In kind it is cell-based. As to conditions: A549 cells, influenza A/WSN/33 (H1N1), 20 hours incubation, read-out: A549_A(H1N1) EC50.

Like-named read-outs stand apart in the source and are kept apart here. Where only a bound is given, the exact number is not on record here.

Take `O=C1c2c(O)c(=O)ccn2N2CN1CC/C=C/COc1cccc3c1[C@@H]2c1cccc(F)c1SC3` (single isomer, unassigned) [Compound 137A, (1*R,13*E)-25-fluoro-7-hydroxy-16-oxa-23-thia-2,3,10-triazahexacyclo[15.12.1.12,10.03,8.021,30.024,29]hentriaconta-4,7,13,17,19,21(30),24(29),25,27-nonaene-6,9-dione]: the half-maximal cytotoxic concentration (CC50) (commonly the concentration giving 50% cytotoxicity) in “in vitro” is more than 200 nM. The EC50 – broadly, the concentration at which the effect is half-maximal – in data set [1] (Influenza A virus, A549, 20 h) is more than 100 nM.
In “in vitro”, `O=C1c2c(O)c(=O)ccn2N2CN1CCCCCc1ccccc1[C@H]2c1ccccn1` (single isomer, unassigned) [Compound 40B, (17*S)-4-hydroxy-16-(pyridin-2-yl)-7,8,9,10,11,16-hexahydro-6,17-methanobenzo[k]pyrido[1,2-b][1,2,5]triazacyclotridecine-3,5-dione] gave a CC50 of more than 2000 nM. Besides, in data set [1] (Influenza A virus, A549, 20 h), the EC50 was more than 1000 nM.
`O=C1c2c(O)c(=O)ccn2N2CN1CCCCCOc1cccc3c1[C@@H]2c1ccccc1SC3` (single isomer, unassigned) [Compound 48B]: the CC50 in “in vitro” was more than 2000 nM. Moreover, the EC50 in data set [1] came to 27 nM.
Turning to `O=C1c2c(O)c(=O)ccn2N2CN1C/C=C\COc1cccc3c1[C@H]2c1ccccc1OC3` (single isomer, unassigned) [Compound 53A, (21a*R,Z)-16-hydroxy-6,10,13,21a-tetrahydro-7,8-(epiprop[1]en[1]yl[3]ylidene)-14,21-methanobenzo[6,7]oxepino[4,5-c]pyrido[1,2-f][1]oxa[5,6,9]triazacyclotridecine-15,17-dione], the CC50 in “in vitro” is more than 2000 nM. The 50% effective concentration (EC50) in data set [1] (Influenza A virus, A549, 20 h) came out at 34 nM.
As for `O=C1c2c(O)c(=O)ccn2N2CN1CCCCCCc1ccccc1C2c1ccccn1` (centres unmarked) [Compound 11, 15-hydroxy-2-(pyridin-2-yl)-12,13,14,16-tetrahydro-11H-1(1,3)-pyrido[2,1-f][1,2,4]triazina-3(1,2)-benzenacyclononaphane-14,16-dione], the CC50 in the data set “in vitro” was more than 2000 nM. In addition, the EC50 in data set [1] (Influenza A virus, A549, 20 h) worked out at 363 nM.
The matching figures for `C[C@H]1/C=C\COc2cc(F)c(F)c3c2C(c2ccccc2SC3)N2CN1C(=O)c1c(O)c(=O)ccn12` (single isomer, unassigned) [Compound 162D, (13*S,21a*S,*Z)-24,25-difluoro-16-hydroxy-13-methyl-6,10,13,21a-tetrahydro-7,8-(epiprop[1]en[1]yl[3]ylidene)-14,21-methanobenzo[6,7]thiepino[4,5-c]pyrido[1,2-f][1]oxa[5,6,9]triazacyclotridecine-15,17-dione]: more than 100 nM and 0.51 nM.
In “in vitro”, `CC[C@H]1/C=C/COc2cc(F)ccc2[C@@H](c2ccccc2)N2CN1C(=O)c1c(O)c(=O)ccn12` (single isomer, unassigned) [Compound 89AA, (9*S,18*R,E)-9-ethyl-3-fluoro-12-hydroxy-18-phenyl-6,9-dihydro-18H-10,17-methanobenzo[b]pyrido[1,2-f][1]oxa[5,6,9]triazacyclotridecine-11,13-dione] displayed a CC50 of 39300 nM. The EC50 in data set [1] (Influenza A virus, A549, 20 h) worked out at 10800 nM.
As to `CC[C@H]1/C=C/COc2c(ccc(Cl)c2F)[C@H](c2ccccc2)N2CN1C(=O)c1c(O)c(=O)ccn12` (single isomer, unassigned) [Compound 170AA, (9*S,18*S,E)-3-chloro-9-ethyl-4-fluoro-12-hydroxy-18-phenyl-6,9-dihydro-18H-10,17-methanobenzo[b]pyrido[1,2-f][1]oxa[5,6,9]triazacyclotridecine-11,13-dione], in “in vitro”, the CC50 was more than 100 nM. In data set [1] (Influenza A virus, A549, 20 h), the EC50 was more than 50 nM.
Turning to `O=C1c2c(O)c(=O)ccn2N2CN1C1(/C=C/COc3cccc4c3[C@H]2c2ccccc2SC4)CCC1` (single isomer, unassigned) [Compound 147B, (17a′*S,*E)-12′-hydroxy-2′,17a′-dihydro-6′H-spiro[cyclobutane-1,9′-[3,4](epiprop[1]en[1]yl[3]ylidene)[10,17]methanobenzo[6,7]thiepino[4,5-c]pyrido[1,2-f][1]oxa[5,6,9]triazacyclotridecine]-11′,13′-dione], in the data set “in vitro”, the half-maximal cytotoxic concentration (CC50) was more than 100 nM. For the same molecule, in data set [1] (Influenza A virus, A549, 20 h), the EC50 worked out at 0.33 nM.
`O=C1c2c(O)c(=O)ccn2N2CN1C[C@H]1C[C@@H]1COc1cccc3c1[C@H]2c1ccccc1SC3` [Compound 87BA, (1aS,11bS,20aS)-17-hydroxy-1a,2,6,11b,20,20a-hexahydro-1H-5,4-(epiprop[1]en[1]yl[3]ylidene)-12,19-methanobenzo[6,7]thiepino[4,5-c]cyclopropa[k]pyrido[1,2-f][1]oxa[5,6,9]triazacyclotridecine-16,18-dione] yielded a CC50 in the data set “in vitro” of more than 200 nM. Besides, the EC50 in data set [1] (Influenza A virus, A549, 20 h) came to 4 nM.
As to `O=C1c2c(O)c(=O)ccn2N2CN1CCCCOc1c(F)cccc1[C@@H]2c1ccccc1` (single isomer, unassigned) [Compound 114B, (18*S)-4-fluoro-12-hydroxy-18-phenyl-6,7,8,9-tetrahydro-18H-10,17-methanobenzo[b]pyrido[1,2-f][1]oxa[5,6,9]triazacyclotridecine-11,13-dione], in the data set “in vitro”, the CC50 is more than 200 nM. In data set [1] (Influenza A virus, A549, 20 h), the half-maximal effective concentration (EC50) is more than 100 nM.
With `O=C1c2c(O)c(=O)ccn2N2CN1C/C=C\COc1c(OC(F)(F)F)cccc1[C@H]2c1ccccc1` (single isomer, unassigned) [Compound 134A, (18*R,Z)-12-hydroxy-18-phenyl-4-(trifluoromethoxy)-6,9-dihydro-18H-10,17-methanobenzo[b]pyrido[1,2-f][1]oxa[5,6,9]triazacyclotridecine-11,13-dione], the CC50 in the data set “in vitro” is more than 200 nM. Also, in data set [1] (Influenza A virus, A549, 20 h), the EC50 came out at 69.3 nM.
With `C[C@H]1/C=C/COc2cccc3c2[C@@H](c2ccccc2SC3)N2CN1C(=O)c1c(O)c(=O)ccn12` (single isomer, unassigned) [Compound 138D, (9*S,17a*S,E)-12-hydroxy-9-methyl-2,6,9,17a-tetrahydro-3,4-(epiprop[1]en[1]yl[3]ylidene)-10,17-methanobenzo[6,7]thiepino[4,5-c]pyrido[1,2-f][1]oxa[5,6,9]triazacyclotridecine-11,13-dione], the CC50 in “in vitro” is more than 200 nM. Further, the EC50 in data set [1] (Influenza A virus, A549, 20 h) is 0.9 nM.
As for `O=C1c2c(O)c(=O)ccn2N2CN1CC/C=C/COc1c(ccc(F)c1F)[C@@H]2c1ccccc1` (single isomer, unassigned) [Compound 112A, (2*S,E)-33,34-difluoro-15-hydroxy-2-phenyl-12,13,14,16-tetrahydro-11H-4-oxa-1(1,3)-pyrido[2,1-f][1,2,4]triazina-3(1,2)-benzenacyclononaphan-6-ene-14,16-dione], in the data set “in vitro”, the CC50 is more than 200 nM. Further, in data set [1] (Influenza A virus, A549, 20 h), the EC50 came out at 3.8 nM.
`C/C1=C/CN2CN([C@H](c3ccccc3)c3ccccc3OC1)n1ccc(=O)c(O)c1C2=O` (single isomer, unassigned) [Compound 44A, (18*R,*Z)-12-hydroxy-7-methyl-18-phenyl-6,9-dihydro-18H-10,17-methanobenzo[b]pyrido[1,2-f][1]oxa[5,6,9]triazacyclotridecine-11,13-dione] gave a CC50 in the data set “in vitro” of more than 200 nM. In addition, in data set [1] (Influenza A virus, A549, 20 h), the EC50 was more than 100 nM.
In the case of `CC[C@H]1/C=C/COc2cc(Cl)ccc2[C@H](c2ccccc2)N2CN1C(=O)c1c(O)c(=O)ccn12` (single isomer, unassigned) [Compound 97BB], the CC50 in “in vitro” is more than 1000 nM. The EC50 in data set [1] (Influenza A virus, A549, 20 h) was more than 500 nM.
`O=C1c2c(O)c(=O)ccn2N2CN1C/C=C\COc1cc(Cl)ccc1[C@@H]2c1ccccc1` (single isomer, unassigned) [Compound 72B, (18*S,Z)-3-chloro-12-hydroxy-18-phenyl-6,9-dihydro-18H-10,17-methanobenzo[b]pyrido[1,2-f][1]oxa[5,6,9]triazacyclotridecine-11,13-dione] displayed a CC50 in “in vitro” of more than 2000 nM. Moreover, the EC50 in data set [1] (Influenza A virus, A549, 20 h) turned out to be 8 nM.
As for `O=C1c2c(O)c(=O)ccn2N2CN1CCCCOc1ccccc1C2c1ccccc1` (centres unmarked) [Compound 8, 12-hydroxy-18-phenyl-6,7,8,9-tetrahydro-18H-10,17-methanobenzo[b]pyrido[1,2-f][1]oxa[5,6,9]triazacyclotridecine-11,13-dione], the CC50 in “in vitro” was more than 2000 nM. The EC50 in data set [1] (Influenza A virus, A549, 20 h) came to 59 nM.
Taken in the same sequence, the figures for `CC[C@@H]1/C=C/COc2ccccc2[C@@H](c2ccccc2)N2CN1C(=O)c1c(O)c(=O)ccn12` [Compound 39BA, (9R,18R,E)-9-ethyl-12-hydroxy-18-phenyl-6,9-dihydro-18H-10,17-methanobenzo[b]pyrido[1,2-f][1]oxa[5,6,9]triazacyclotridecine-11,13-dione] were more than 200 nM and 6 nM.
In “in vitro”, `O=C1c2c(O)c(=O)ccn2N2CN1CC[C@@H]1C[C@@H]1COc1cccc3c1[C@H]2c1ccccc1SC3` (single isomer, unassigned) [Compound 144BA, (1*S,13*S,15*S)-7-hydroxy-17-oxa-24-thia-2,3,10-triazaheptacyclo[16.12.1.12,10.03,8.013,15.022,31.025,30]dotriaconta-4,18,20,22(31),25(30),26,28-heptaene-6,9-dione] showed a CC50 of more than 200 nM. Further, the EC50 in data set [1] (Influenza A virus, A549, 20 h) turned out to be 72.9 nM.
`O=C1c2c(O)c(=O)ccn2N2CN1CCCCOc1ccc(F)cc1[C@H]2c1cccc(F)c1` (single isomer, unassigned) [Compound 32A, (18*R)-2-fluoro-18-(3-fluorophenyl)-12-hydroxy-6,7,8,9-tetrahydro-18H-10,17-methanobenzo[b]pyrido[1,2-f][1]oxa[5,6,9]triazacyclotridecine-11,13-dione] gave a CC50 in the data set “in vitro” of more than 2000 nM. In addition, the EC50 in data set [1] (Influenza A virus, A549, 20 h) was more than 1000 nM.
Consider `O=C1c2c(O)c(=O)ccn2N2CN1C1(/C=C/COc3cccc4c3[C@@H]2c2ccccc2SC4)CC1` (single isomer, unassigned) [Compound 107A, (17a′*R,*E)-12′-hydroxy-2′,17a′-dihydro-6′H-spiro[cyclopropane-1,9′-[3,4](epiprop[1]en[1]yl[3]ylidene)[10,17]methanobenzo[6,7]thiepino[4,5-c]pyrido[1,2-f][1]oxa[5,6,9]triazacyclotridecine]-11′,13′-dione], for which the CC50 in the data set “in vitro” was more than 200 nM. Moreover, in data set [1] (Influenza A virus, A549, 20 h), the EC50 is more than 100 nM.
